Reference: paper PMC12202533, “Mechanistic Insights and Anti-cancer Activity of 2H-benzo[b][1,4]oxazin-3(4H)-one Linked 1,2,3-Triazoles in Human Cancer Cells” (Frontiers in Pharmacology, 2025)

Tests used:
HCT-116 = assay: CCK-8 cell viability assay; format: cell-based; details: Homo sapiens, HCT-116, 40 μM, 48 h, read-out: Cell viability (100%), 40 μM, 48 h, HCT-116
KM mice = assay: Acute toxicity test in mice; format: in vivo; details: 800 mg/kg oral gavage; for safety / toxicity in mice: 800 mg/kg
Experimental: We further evaluated the safety of compound 14b through an acute toxicity study in KM mice. Male and female mice were divided into two groups: a control group and a 14 b-treated group. The treated group received 800 mg/kg of compound 14b via oral gavage, while the control group was given an equivalent volume of solvent. Body weight was monitored over a 15-day period. At the end of the study, blood samples were collected from the retro-orbital sinus to assess the biochemical markers GPT and GOT, and the major organs—heart, liver, spleen, lungs, and kidneys—were weighed and subjected to HE staining.

BEAS-2B cells = assay: Calcein AM/PI live/dead viability assay, normal lung cells; format: cell-based; details: BEAS-2B, 5, 10, 20 μM, 24 h
Experimental: To investigate the role of 14b and 14c in regulating cell proliferation and death, A549 cells were treated with different concentrations of compounds for 24 h, and the live/dead cell numbers were then observed by staining with calcein AM and propidium iodide.
FIGURE 4 Compound 14b and 14c increased dead cells and decreased live cells. (A–B) A549 cells were treated with different concentrations of 14b and 14c (5 μM, 10 μM, and 20 μM) for 24 h (C–D) BEAS-2B cells were treated with different concentrations of 14b and 14c (5 μM, 10 μM, and 20 μM) for 24 h. Live and dead cell numbers were stained with calcein in AM and PI, respectively, and cells were observed by confocal microscopy. Data are presented as mean ± SEM, *P < 0.05.
The live/dead viability assay was performed using the Calcein/PI Live/Dead Viability Assay Kit. A549 cells were plated at a density of 5 × 10^3 cells per well in a 96-well plate and allowed to adhere overnight. Compounds were then added at concentrations of 0, 5, 10, or 20 μM for 24 h. After replacing the medium with fresh culture medium containing Calcein AM and propidium iodide, the cells were incubated for 30 min at 37°C in the dark. Live and dead cells were observed and photographed using a confocal microscope.

| Structure (SMILES) | viability at 40 µM (HCT-116) [%] | HE staining of the major organs (heart, liver, spleen, lungs, and kidneys) (KM mice) | organ indices of the major organs versus control group (KM mice) | safety / toxicity in mice (KM mice) | body weight versus control group (KM mice; 15-day period) | GPT levels (KM mice; blood) | safety / toxicity in mice (KM mice; listed as 14 b) | cytotoxicity in normal lung cells (BEAS-2B cells) |
| --- | --- | --- | --- | --- | --- | --- | --- | --- |
| O=C1COc2ccc(NC(=O)c3cccc(-c4cn(-c5cccc(Br)c5)nn4)c3)cc2N1 [Compound 14b] | 125 ± 2.78 | no significant histopathological differences | no significant changes | low toxicity | no significant differences | slight but not statistically significant increase | favorable safety profile | minimal cytotoxicity |
| O=C1COc2ccc(NC(=O)c3cccc(-c4cn(-c5ccccc5F)nn4)c3)cc2N1 [Compound 14c] | 65.3 ± 4.55 | – | – | – | – | – | – | minimal cytotoxicity |
